Source: the supplement of paper PMC10307832

Columns and labels:
Test in all cases: relative viability (nuclei count vs DMSO), 5 days (fraction); higher = more cells survive
[1] = compound: CO[C@H]1C[C@@H]2CC[C@@H](C)[C@@](O)(O2)C(=O)C(=O)N2CCCC[C@H]2C(=O)O[C@H]([C@H](C)C[C@@H]2CC[C@@H](OCCO)[C@H](OC)C2)CC(=O)[C@H](C)/C=C(\C)[C@@H](O)[C@@H](OC)C(=O)[C@H](C)C[C@H](C)/C=C/C=C/C=C/1C [Everolimus] + CC(=O)Nc1cccc(-n2c(=O)n(C3CC3)c(=O)c3c(Nc4ccc(I)cc4F)n(C)c(=O)c(C)c32)c1 [Trametinib] (partner 0.02 µM)
Outline: (§1)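 The day after seeding in 1536-well plates, lung cancer cell lines were treated by pin tool with a single drug, or with a fixed anchor-drug dose together with five library-drug doses (not always all listed) in √10 steps. After 5 days, a combined fix-and-stain solution (final 0.05% Triton X-100, 1% formaldehyde, 1 ug/ml Hoechst) was added. Nuclei counted on 4× images gave relative viability as treated counts over vehicle counts, reported as the median of duplicate plates.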

[2] = compound: CO[C@H]1C[C@@H]2CC[C@@H](C)[C@@](O)(O2)C(=O)C(=O)N2CCCC[C@H]2C(=O)O[C@H]([C@H](C)C[C@@H]2CC[C@@H](OCCO)[C@H](OC)C2)CC(=O)[C@H](C)/C=C(\C)[C@@H](O)[C@@H](OC)C(=O)[C@H](C)C[C@H](C)/C=C/C=C/C=C/1C [Everolimus] + CS(=O)(=O)CCNCc1ccc(-c2ccc3ncnc(Nc4ccc(OCc5cccc(F)c5)c(Cl)c4)c3c2)o1 [Lapatinib] (partner 2 µM)
Outline: as §1

[3] = compound: CO[C@H]1C[C@@H]2CC[C@@H](C)[C@@](O)(O2)C(=O)C(=O)N2CCCC[C@H]2C(=O)O[C@H]([C@H](C)C[C@@H]2CC[C@@H](OCCO)[C@H](OC)C2)CC(=O)[C@H](C)/C=C(\C)[C@@H](O)[C@@H](OC)C(=O)[C@H](C)C[C@H](C)/C=C/C=C/C=C/1C [Everolimus] + N=C(N)NC(=N)NCCc1ccccc1 [Phenformin] (partner 250 µM)
Outline: as §1

[4] = compound: CO[C@H]1C[C@@H]2CC[C@@H](C)[C@@](O)(O2)C(=O)C(=O)N2CCCC[C@H]2C(=O)O[C@H]([C@H](C)C[C@@H]2CC[C@@H](OCCO)[C@H](OC)C2)CC(=O)[C@H](C)/C=C(\C)[C@@H](O)[C@@H](OC)C(=O)[C@H](C)C[C@H](C)/C=C/C=C/C=C/1C [Everolimus] + O=C(c1cc(Cc2n[nH]c(=O)c3ccccc23)ccc1F)N1CCN(C(=O)C2CC2)CC1 [Olaparib] (partner 8 µM)
Outline: as §1

Cell Line | relative viability ([1]; first compound 0.01 µM) | relative viability ([1]; first compound 0.03162 µM) | relative viability ([1]; first compound 0.1 µM) | relative viability ([1]; first compound 0.3162 µM) | relative viability ([1]; first compound 1 µM) | relative viability ([2]; first compound 0.01 µM) | relative viability ([2]; first compound 0.03162 µM) | relative viability ([2]; first compound 0.1 µM) | relative viability ([2]; first compound 0.3162 µM) | relative viability ([2]; first compound 1 µM) | relative viability ([3]; first compound 0.01 µM) | relative viability ([3]; first compound 0.03162 µM) | relative viability ([3]; first compound 0.1 µM) | relative viability ([3]; first compound 0.3162 µM) | relative viability ([3]; first compound 1 µM) | relative viability ([4]; first compound 0.01 µM) | relative viability ([4]; first compound 0.03162 µM) | relative viability ([4]; first compound 0.1 µM) | relative viability ([4]; first compound 0.3162 µM) | relative viability ([4]; first compound 1 µM)
H3255 | 0.414 | 0.391 | 0.351 | 0.433 | 0.403 | 0.249 | 0.238 | 0.266 | 0.212 | 0.225 | 0.332 | 0.271 | 0.354 | 0.363 | 0.288 | 0.489 | 0.513 | 0.444 | 0.454 | 0.355
HCC-44 | 1.13 | 1.08 | 0.982 | 1.04 | 0.901 | 1.01 | 1.11 | 1.12 | 1.01 | 0.938 | 0.195 | 0.125 | 0.127 | 0.178 | 0.168 | 1 | 1.17 | 1.07 | 1.06 | 1.03
NCI-H1734 | 0.502 | 0.473 | 0.404 | 0.453 | 0.46 | 0.715 | 0.582 | 0.582 | 0.551 | 0.73 | 0.306 | 0.324 | 0.249 | 0.31 | 0.35 | 0.448 | 0.409 | 0.456 | 0.406 | 0.407
NCI-H2228 | 0.33 | 0.237 | 0.256 | 0.251 | 0.265 | 0.89 | 0.7 | 0.705 | 0.582 | 0.793 | 0.214 | 0.194 | 0.172 | 0.291 | 0.187 | 0.658 | 0.289 | 0.336 | 0.266 | 0.311
COR-L23 | 0.37 | 0.337 | 0.316 | 0.375 | 0.294 | 0.744 | 0.829 | 0.804 | 1.01 | 0.918 | 0.368 | 0.413 | 0.395 | 0.421 | 0.424 | 0.321 | 0.346 | 0.334 | 0.282 | 0.352
NCI-H661 | 0.407 | 0.376 | 0.343 | 0.409 | 0.318 | 0.358 | 0.428 | 0.341 | 0.276 | 0.299 | 0.253 | 0.259 | 0.258 | 0.271 | 0.281 | 0.672 | 0.64 | 0.576 | 0.593 | 0.491
NCI-H1993 | 0.423 | 0.469 | 0.486 | 0.464 | 0.536 | 0.725 | 0.69 | 0.649 | 0.791 | 0.807 | 0.525 | 0.498 | 0.533 | 0.468 | 0.454 | 0.584 | 0.364 | 0.499 | 0.529 | 0.558
